How the values were obtained:
Assay type in all cases: physicochemical
color of dye in toluene = experiment: color of dye in toluene
[1] = dichroic ratio of dye dissolved in liquid crystals (homogeneously aligned 10 micron cell); settings: for Dichroic ratio in liquid crystals E-8: Table 1 method: 1.0% by weight dye, 10 micron gap
Description: The dichroic ratio is determined as follows:
The cell was placed in the light path of a spectro-photometer. Straight polarized light parallel to the alignment of the liquid crystals was applied to the cell, and the absorbance ([…] ) was measured. Furthermore, straight polarized light at right angles to the alignment of the liquid crystals was applied, and the absorbance ([…] ) was measured. The dichroic ratio was calculated from the following equation. [formula]

[2] = light fastness (total current after exposure of cell to solar light for 200 hours); settings: for Light fastness: 0.5% by weight dye in E-8, solar light 200 hours, rectangular wave 6Vp-p, 32 Hz, total current
Description: 0.5% by weight of each dye was dissolved in the liquid crystals E-8, and the solution was sealed into a liquid crystal wall having a gap of 10 microns and including a pair of facing transparent electrodes with an area of 1.0 cm^2. The cell was exposed to solar light for 200 hours. Then, a voltage of a rectangular wave form (6Vp-p, 32 Hz) was applied, and the total current was measured (μA/cm^2).

[3] = solubility of dye in liquid crystals E-8; settings: for Solubility: in liquid crystals E-8 at 25° C.
Description: This is the solubility (% by weight) of each dye in liquid crystals E-8 (made by Merck & Co.) at 25° C.

[4] = dichroic ratio and maximum absorption wavelength in cyanobiphenyl/cyanoterphenyl liquid crystal mixture
Description: 0.1 Part by weight of the dye No. 8 in Table 1 was dissolved in 10 parts by weight of a liquid crystal mixture composed of 43% of 4-n-pentyl-4'-cyano-biphenyl, 17% of 4-n-propoxy-4'-cyanobiphenyl, 13% of 4-n-pentoxy-4'-cyanobiphenyl, 17% of 4-n-octoxy-4'-cyanobiphenyl and 10% of 4-n-pentyl-4'-cyanoterphenyl. The resulting color liquid crystal mixture was sealed into a glass cell having a gap of 10 microns which had been subjected to homogeneous aligning treatment. The maximum absorption wavelength was 512 nm and the dichroic ratio was 10.2. A display device obtained by sealing this color liquid crystal mixture into a glass liquid crystal display element of the same structure as above including transparent electrodes assumed a red color entirely in the absence of a voltage applied, and when a voltage was applied, only the part of the electrodes became nearly colorless, thus showing a good contrast.

[5] = maximum absorption wavelength of dye in liquid crystals
Description: The crude dye was purified by the same column chromatographic technique as in Example 1 to give a blue dye having a melting point of 155° to 157° C. (Dye No.19 in Table 1). The dichroic ratio of the dye was measured in the liquid crystals E-8 in the same way as described above with regard to Table 1, and found to be 10.3 (λmax 616 nm). […] When liquid crystals ZLI-1840 were used instead of the liquid crystals E-8, the dichroic ratio of the dye was 10.8 (λmax 612 nm). When liquid crystals ZLI-1275 were used, the dichroic ratio was 10.1 (λmax 616 nm).

Structure (SMILES) | Color in toluene (color of dye in toluene) | Dichroic ratio in liquid crystals E-8 [1] | other results
CCCCCC1CCC(c2nc3cc4c(c(O)c3o2)C(=O)c2ccc(CC(C)C)c(O)c2C4=O)CC1 (centres unmarked) [Dye No. 21] | Orange | 8.1 | 
CC(CC[C@H]1CC[C@H](c2nc3c(N)c4c(c(O)c3o2)C(=O)c2c(N)ccc(O)c2C4=O)CC1)CC(C)(C)C (some centres unmarked) [Dye No. 19] | Blue | 10.3 | 
CC(C)(C)CC(C)(C)[C@H]1CC[C@H](c2nc3c(N)c4c(c(O)c3o2)C(=O)c2c(O)cccc2C4=O)CC1 [Dye No. 22] | Reddish violet | 11.6 | 
CCCCCCCC1CCC(c2nc3c(N)c4c(c(N)c3o2)C(=O)c2ccc(C(=O)OCCCC)cc2C4=O)CC1 (centres unmarked) [Dye No. 25] | Reddish violet | 9.3 | 
CCCCc1ccc(Nc2cccc3c2C(=O)c2cccc(Nc4ccc(CCCC)cc4)c2C3=O)cc1 [B, reference compound] |  |  | Light fastness [2]: 3.6 μA/cm^2; Solubility [3]: 0.7 % by weight
CN(C)c1ccc(N=Nc2ccc(N=Nc3ccccc3)cc2)cc1 [A, reference compound] |  |  | Light fastness [2]: 4.2 μA/cm^2; Solubility [3]: 1.1 % by weight
CCCCCOC(=O)C1CCC(c2nc3cc4c(c(O)c3o2)C(=O)c2c(O)ccc(O)c2C4=O)CC1 (centres unmarked) [Dye No. 3] | Orange | 9.3 | 
CCCCOCCC1CCC(c2nc3c(Br)c4c(c(O)c3o2)C(=O)c2ccccc2C4=O)CC1 (centres unmarked) [Dye No. 6] | Orange | 6.8 | 
CCCCc1ccc(OC(=O)C2CCC(c3nc4c(N)c5c(c(O)c4o3)C(=O)c3c(N)ccc(O)c3C5=O)CC2)cc1 (centres unmarked) [Dye No. 27] | Blue | 9.2 | 
CC(C)(C)CC(C)(C)[C@H]1CC[C@H](c2nc3c(N)c4c(c(O)c3o2)C(=O)c2c(O)cccc2C4=O)CC1 [No. 22] |  |  | dichroic ratio ([1]; liquid crystals ZLI-1840): 12.3; solubility in liquid crystals E-8 ([3]; liquid crystals E-8, temperature not stated (Example 7)): 4.0%
CCCCC1CCC(c2nc3c(N)c4c(c(O)c3o2)C(=O)c2ccccc2C4=O)CC1 (centres unmarked) [Dye No. 1] | Red | 9.5 | 
CCCCOC(=O)C1CCC(c2nc3c(N)c4c(c(O)c3o2)C(=O)c2c(O)cccc2C4=O)CC1 (centres unmarked) [Dye No. 23] | Reddish violet | 8.2 | 
CCCCc1ccc(OC(=O)C2CCC(c3nc4c(Cl)c5c(c(O)c4o3)C(=O)c3c(Cl)ccc(O)c3C5=O)CC2)cc1 (centres unmarked) [Dye No. 26] | Orange | 8.0 | 
CCCCCC1CCC(c2nc3c(N)c4c(c(N)c3o2)C(=O)c2ccccc2C4=O)CC1 (centres unmarked) [Dye No. 10] | Reddish violet | 8.1 | 
CCCCCC1CCC(c2nc3c(N)c4c(c(O)c3o2)C(=O)c2ccccc2C4=O)CC1 (centres unmarked) [No. 8] |  |  | Light fastness [2]: 2.0 μA/cm^2; light fastness compared with known dyes ([2]; as in Table 2): higher solubility and light fastness than known dyes A, B and C; dichroic ratio ([4]; 0.1 part dye in 10 parts cyanobiphenyl/cyanoterphenyl mixture (Example 4)): 10.2; maximum absorption wavelength ([4]; cyanobiphenyl/cyanoterphenyl mixture (Example 4)): 512 nm; Solubility [3]: 4.7 % by weight; solubility compared with known dyes A, B and C ([3]; liquid crystals E-8): higher solubility
CCCCCCCCCCCCC1CCC(c2nc3c(N)c4c(c(O)c3o2)C(=O)c2ccccc2C4=O)CC1 (centres unmarked) [Dye No. 9] | Red | 9.3 | 

Structure (SMILES) | Color in toluene (color of dye in toluene) | Dichroic ratio in liquid crystals E-8 [1] | other results
CCCCCC1CCC(c2nc3cc4c(c(O)c3o2)C(=O)c2c(O)ccc(O)c2C4=O)CC1 (centres unmarked) [Dye No. 18] | Orange | 9.8 | 
CCCCCCCCC1CCC(c2nc3c(N)c4c(c(O)c3o2)C(=O)c2c(N)ccc(O)c2C4=O)CC1 (centres unmarked) [Dye No. 14] | Blue | 10.5 | 
CCCCCCCC1CCC(c2nc3c(O)c4c(c(N)c3o2)C(=O)c2ccccc2C4=O)CC1 (centres unmarked) [Dye No. 16] | Red | 8.0 | 
Nc1c2c(c(O)c3oc(C4CCCCC4)nc13)C(=O)c1ccccc1C2=O [C, reference compound] |  |  | Solubility [3]: 0.4 % by weight
CC(CC[C@H]1CC[C@H](c2nc3c(N)c4c(c(O)c3o2)C(=O)c2c(N)ccc(O)c2C4=O)CC1)CC(C)(C)C (some centres unmarked) [No.19] |  |  | dichroic ratio ([1]; liquid crystals ZLI-1275): 10.1; dichroic ratio ([1]; liquid crystals ZLI-1840): 10.8; λmax ([5]; liquid crystals E-8): 616 nm; λmax ([5]; liquid crystals ZLI-1275): 616 nm; λmax ([5]; liquid crystals ZLI-1840): 612 nm; solubility in E-8 ([3]; liquid crystals E-8, temperature not stated (Example 5)): 7.2 % by weight
CC(C)(C)C1CCC(c2nc3cc4c(c(O)c3s2)C(=O)c2ccccc2C4=O)CC1 (centres unmarked) [Dye No. 13] | Yellow | 7.8 | 
CCCCCCCC1CCC(c2nc3cc4c(c(O)c3o2)C(=O)c2c(NC)ccc(NC)c2C4=O)CC1 (centres unmarked) [Dye No. 20] | Blue | 9.2 | 
CC(CCC1CCC(c2nc3c(O)c4c(c(O)c3o2)C(=O)c2ccccc2C4=O)CC1)CC(C)(C)C (centres unmarked) [Dye No. 7] | Orange | 8.1 | 
CCCCCCCC1CCC(c2nc3c(N)c4c(c(O)c3o2)C(=O)c2ccc(C(=O)OCCCC)cc2C4=O)CC1 (centres unmarked) [Dye No. 24] | Reddish violet | 8.6 | 
CCCCCC1CCC(c2nc3cc4c(c(O)c3s2)C(=O)c2ccccc2C4=O)CC1 (centres unmarked) [Dye No. 11] | Yellow | 8.5 | 
CCCCCC1CCC(c2nc3cc4c(c(NC)c3o2)C(=O)c2ccccc2C4=O)CC1 (centres unmarked) [Dye No. 17] | Orange | 6.9 | 
CCCCC[C@H]1CC[C@H](c2nc3cc4c(c(O)c3o2)C(=O)c2ccccc2C4=O)CC1 [Dye No. 4] | Yellow | 7.2 | 
CCCCCCCCCC1CCC(c2nc3c(N)c4c(c(O)c3o2)C(=O)c2c(N)cccc2C4=O)CC1 (centres unmarked) [Dye No. 2] | Violet | 8.2 | 
CC(C)(C)c1ccc(C2CCC(c3nc4c(N)c5c(c(O)c4o3)C(=O)c3ccccc3C5=O)CC2)cc1 (centres unmarked) [Dye No. 5] | Red | 10.1 | 
CCCCCCCCCC1CCC(c2nc3c(N)c4c(c(O)c3o2)C(=O)c2cc(C)ccc2C4=O)CC1 (centres unmarked) [Dye No. 15] | Red | 10.2 | 
CCCCCC1CCC(c2nc3c(N)c4c(c(O)c3o2)C(=O)c2ccccc2C4=O)CC1 (centres unmarked) [Dye No. 8] | Red | 9.5 | 

Source: US4552684A, “Dichroic dye and liquid crystalline composition for color display” (Mitsui Toatsu Chemicals, Inc., priority 1983, dated 1985)
